# Source: patent US20240391936A1, “TETRAHYDROTHIENO PYRIDINE DERIVATIVES AS DDRS INHIBITORS” (CHIESI FARMACEUTICI S.P.A., priority 2021, published 2024)
# Columns and labels:
# DDR1 [1] = molecular target: T1, DDR1 (Homo sapiens, UniProt Q08345); test: DDR1 binding assay (LanthaScreen Europium Kinase Binding assay); set-up: purchased Carna Biosciences; details: binding assay, 5 nM DDR1, 20 nM Kinase Tracer 178; Ki from IC50 by Cheng-Prusoff; read-out: Ki DDR1
# Method: (§1) DDR1 and DDR2 binding assays were performed using Life Technologies LanthaScreen™ Europium Kinase Binding assay. The compounds were incubated with 5 nM DDR1 (Carna Biosciences) or 5 nM DDR2 (Life Technologies) for 1 hour at room temperature in white 384-well OptiPlate (PerkinElmer), containing 20 nM or 10 nM Kinase Tracer 178 respectively and 2 nM Europium labelled anti-GST antibody (Life Technologies) in assay buffer (50 mM HEPES pH 7.5, 10 mM MgCl2, 1 mM EGTA and 0.01% BRIJ35).
# (§2) The ratio of fluorescence emission 665 nm/615 nm after excitation at 340 nm was obtained using the Tecan Spark 20M plate reader. IC50 values were determined in GraphPad Prism 7.0 software, using 4 parameter model: log(inhibitor) vs. response. IC50 values were converted in Ki using the Cheng-Prusoff equation
# DDR2 = molecular target: T2, DDR2 (Homo sapiens, UniProt Q16832); test: DDR2 binding assay (LanthaScreen Europium Kinase Binding assay); set-up: purchased Life Technologies; details: binding assay, 5 nM DDR2, 10 nM Kinase Tracer 178; Ki from IC50 by Cheng-Prusoff; read-out: Ki DDR2
# T2 sequence (Q16832 22-855): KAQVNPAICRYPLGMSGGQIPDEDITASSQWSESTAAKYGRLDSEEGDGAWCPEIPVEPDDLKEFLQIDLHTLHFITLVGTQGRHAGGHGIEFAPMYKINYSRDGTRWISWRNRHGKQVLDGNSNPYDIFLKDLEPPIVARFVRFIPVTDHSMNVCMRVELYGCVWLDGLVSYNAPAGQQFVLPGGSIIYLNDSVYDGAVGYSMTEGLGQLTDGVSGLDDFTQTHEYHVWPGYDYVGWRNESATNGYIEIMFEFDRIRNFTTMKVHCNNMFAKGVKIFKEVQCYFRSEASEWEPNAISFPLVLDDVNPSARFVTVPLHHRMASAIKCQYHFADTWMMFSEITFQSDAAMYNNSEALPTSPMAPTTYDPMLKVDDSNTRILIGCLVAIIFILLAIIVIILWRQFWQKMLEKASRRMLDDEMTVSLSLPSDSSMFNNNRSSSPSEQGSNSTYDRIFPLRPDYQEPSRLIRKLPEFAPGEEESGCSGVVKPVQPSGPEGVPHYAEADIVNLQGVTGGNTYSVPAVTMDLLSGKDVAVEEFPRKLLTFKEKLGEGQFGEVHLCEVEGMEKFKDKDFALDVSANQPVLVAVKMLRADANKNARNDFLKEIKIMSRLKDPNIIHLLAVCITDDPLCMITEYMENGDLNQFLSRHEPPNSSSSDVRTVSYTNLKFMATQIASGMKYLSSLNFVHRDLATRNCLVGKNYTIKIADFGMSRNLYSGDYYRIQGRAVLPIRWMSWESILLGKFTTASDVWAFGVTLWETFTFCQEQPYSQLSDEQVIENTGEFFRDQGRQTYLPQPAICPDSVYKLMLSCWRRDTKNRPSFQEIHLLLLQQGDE
# Method: as §1, §2
# DDR1 [2] = molecular target: T1, DDR1; test: DDR1 cell based assay (PathHunter U2OS DDR1 assay); set-up: host or cells: U2OS-DDR1 (PathHunter); details: U2OS-DDR1 cells, bovine Type II Collagen 20 μg/ml
# Method: The inhibition of DDR1 receptor activation by compounds was evaluated by PathHunter® U2OS DDR1 assay (Eurofins DiscoverX), according to the manufacturer's instructions. Briefly, U2OS-DDR1 cells were seeded in white 384-well plates at a density of 5000 cells/well and incubated for 2 hours at 37° C. and 5% CO2. Cells were then treated with compounds at different concentrations and incubated for 30 minutes, before stimulation with bovine Type II Collagen 20 μg/ml and incubation overnight at 37° C. and 5% CO2. PathHunter Detection Reagents were prepared according to the protocol provided by DiscoverX and 20 μl/well of this mix were added to each well. After incubating the plates for 1 hour at room temperature in the dark, luminescence signal was acquired with a plate reader. Raw data were normalized to vehicle control (0% for normalization) and positive control (100% for normalization; cells treated with 20 μg/ml collagen II) and IC50 parameters were calculated in GraphPad Prism 8.0 software, using sigmoidal dose-response curve fitting with variable slope.
# T1 sequence (Q08345 19-913): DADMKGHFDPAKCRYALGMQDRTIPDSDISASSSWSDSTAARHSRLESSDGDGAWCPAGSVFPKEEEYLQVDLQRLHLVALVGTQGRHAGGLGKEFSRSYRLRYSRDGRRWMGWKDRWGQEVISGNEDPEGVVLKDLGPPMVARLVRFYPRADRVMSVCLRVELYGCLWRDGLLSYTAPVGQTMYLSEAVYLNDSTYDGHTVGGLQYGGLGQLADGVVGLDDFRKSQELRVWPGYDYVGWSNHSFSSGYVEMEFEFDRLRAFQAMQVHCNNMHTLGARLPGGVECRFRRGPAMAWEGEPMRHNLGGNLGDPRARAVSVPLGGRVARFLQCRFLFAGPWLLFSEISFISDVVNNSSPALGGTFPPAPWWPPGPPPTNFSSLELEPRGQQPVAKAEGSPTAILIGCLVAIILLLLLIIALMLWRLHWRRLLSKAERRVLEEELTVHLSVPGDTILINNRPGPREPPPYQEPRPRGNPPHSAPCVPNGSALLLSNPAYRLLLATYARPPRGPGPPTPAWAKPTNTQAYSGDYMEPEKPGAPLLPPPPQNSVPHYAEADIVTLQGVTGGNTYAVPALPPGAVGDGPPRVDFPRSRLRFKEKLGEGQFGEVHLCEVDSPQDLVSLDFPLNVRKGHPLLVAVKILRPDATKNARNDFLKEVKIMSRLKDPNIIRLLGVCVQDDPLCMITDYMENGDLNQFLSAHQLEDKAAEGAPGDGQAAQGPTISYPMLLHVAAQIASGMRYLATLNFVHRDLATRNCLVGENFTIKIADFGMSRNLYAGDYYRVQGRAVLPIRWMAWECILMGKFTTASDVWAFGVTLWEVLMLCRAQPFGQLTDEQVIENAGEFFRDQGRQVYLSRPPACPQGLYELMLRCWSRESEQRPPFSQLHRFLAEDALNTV
Structure (SMILES),Ki (DDR1 [1]),Ki (DDR2),IC50 (DDR1 [2])
"O=C(Nc1cccc(C(F)(F)F)c1)c1csc2c1CCN(Cc1cnc3ccnn3c1)C2 [Example 88, 6-(pyrazolo[1,5-a]pyrimidin-6-ylmethyl)-N-(3-(trifluoromethyl)phenyl)-4,5,6,7-tetrahydrothieno[2,3-c]pyridine-3-carboxamide]",< 25 nM,< 25 nM,< 25 nM
"CN1CCN(Cc2cc(NC(=O)c3csc4c3CCN(C(=O)c3cnc5ccccn35)C4)cc(C(F)(F)F)c2)CC1=O [Example 59, 6-(imidazo[1,2-a]pyridine-3-carbonyl)-N-(3-((4-methyl-3-oxopiperazin-1-yl)methyl)-5-(trifluoromethyl)phenyl)-4,5,6,7-tetrahydrothieno[2,3-c]pyridine-3-carboxamide]",25 to 50 nM,25 to 50 nM,25 to 50 nM
"O=C(Nc1cccc(C(F)(F)F)c1)c1csc2c1CCN(C(=O)c1cnc3n1CCOC3)C2 [Example 96, 6-(5,6-dihydro-8H-imidazo[2,1-c][1,4]oxazine-3-carbonyl)-N-(3-(trifluoromethyl)phenyl)-4,5,6,7-tetrahydrothieno[2,3-c]pyridine-3-carboxamide]",< 25 nM,< 25 nM,< 25 nM
"CCCc1cc(NC(=O)c2csc3c2CCN(C(=O)c2cnc4ccccn24)C3)n(C)n1 [Example 39, 6-(imidazo[1,2-a]pyridine-3-carbonyl)-N-(1-methyl-3-propyl-1H-pyrazol-5-yl)-4,5,6,7-tetrahydrothieno[2,3-c]pyridine-3-carboxamide]",< 25 nM,< 25 nM,25 to 50 nM
"Cn1nc(C(C)(C)C)cc1NC(=O)c1csc2c1CCN(Cc1cnc3[nH]ncc3c1)C2 [Example 77, 6-((1H-pyrazolo[3,4-b]pyridin-5-yl)methyl)-N-(3-(tert-butyl)-1-methyl-1H-pyrazol-5-yl)-4,5,6,7-tetrahydrothieno[2,3-c]pyridine-3-carboxamide]",< 25 nM,< 25 nM,< 25 nM
"O=C(Nc1cncc(OC(F)(F)F)c1)c1csc2c1CCN(C(=O)c1cnc3ccccn13)C2 [Example 186, 6-(imidazo[1,2-a]pyridine-3-carbonyl)-N-(5-(trifluoromethoxy)pyridin-3-yl)-4,5,6,7-tetrahydrothieno[2,3-c]pyridine-3-carboxamide]",< 25 nM,< 25 nM,< 25 nM
"O=C(Nc1cc(N2CCOCC2)cc(C(F)(F)F)c1)c1csc2c1CCN(C(=O)c1cnc3ccccn13)C2 [Example 181, 6-(imidazo[1,2-a]pyridine-3-carbonyl)-N-(3-morpholino-5-(trifluoromethyl)phenyl)-4,5,6,7-tetrahydrothieno [2,3-c]pyridine-3-carboxamide]",< 25 nM,< 25 nM,25 to 50 nM
"CN1CC2(C1)CN(c1ccc3ncc(C(=O)N4CCc5c(C(=O)Nc6cccc(C(F)(F)F)c6)csc5C4)n3c1)C2 [Example 166, 6-(6-(6-methyl-2,6-diazaspiro[3.3]heptan-2-yl)imidazo[1,2-a]pyridine-3-carbonyl)-N-(3-(trifluoromethyl)phenyl)-4,5,6,7-tetrahydrothieno[2,3-c]pyridine-3-carboxamide]",< 25 nM,< 25 nM,50 to 80 nM
"CC(C)(C)c1cncc(NC(=O)c2csc3c2CCN(C(=O)c2cnc4ccccn24)C3)c1 [Example 117, N-(5-(tert-butyl)pyridin-3-yl)-6-(imidazo[1,2-a]pyridine-3-carbonyl)-4,5,6,7-tetrahydrothieno[2,3-c]pyridine-3-carboxamide]",< 25 nM,< 25 nM,< 25 nM
"O=C(Nc1cccc(C(F)(F)F)c1)c1csc2c1CCN(Cc1cnn3cccnc13)C2 [Example 89, 6-(pyrazolo[1,5-a]pyrimidin-3-ylmethyl)-N-(3-(trifluoromethyl)phenyl)-4,5,6,7-tetrahydrothieno[2,3-c]pyridine-3-carboxamide]",< 25 nM,< 25 nM,< 25 nM
"CN(C)[C@@H]1CCN(Cc2cc(NC(=O)c3csc4c3CCN(Cc3cnc5ccnn5c3)C4)cc(C(F)(F)F)c2)C1 [Example 161, (R)-N-(3-((3-(dimethylamino)pyrrolidin-1-yl)methyl)-5-(trifluoromethyl)phenyl)-6-(pyrazolo[1,5-a]pyrimidin-6-ylmethyl)-4,5,6,7-tetrahydrothieno[2,3-c]pyridine-3-carboxamide]",< 25 nM,< 25 nM,25 to 50 nM
"O=C(Nc1cccc(C(F)(F)F)c1)c1csc2c1CCN(Cc1cnc3cccnn13)C2 [Example 87, 6-(imidazo[1,2-b]pyridazin-3-ylmethyl)-N-(3-(trifluoromethyl)phenyl)-4,5,6,7-tetrahydrothieno[2,3-c]pyridine-3-carboxamide]",< 25 nM,< 25 nM,50 to 80 nM
"O=C(Nc1cccc(C(F)(F)F)c1)c1csc2c1CCN(C(=O)c1cnc3cc(OCCN4CCOCC4)ccn13)C2 [Example 139, 6-(7-(2-morpholinoethoxy)imidazo[1,2-a]pyridine-3-carbonyl)-N-(3-(trifluoromethyl)phenyl)-4,5,6,7-tetrahydrothieno[2,3-c]pyridine-3-carboxamide]",< 25 nM,< 25 nM,25 to 50 nM
"O=C(Nc1cccc(C(F)(F)F)c1)c1csc2c1CCN(C(=O)c1cnc3[nH]ncc3c1)C2 [Example 91, 6-(1H-pyrazolo[3,4-b]pyridine-5-carbonyl)-N-(3-(trifluoromethyl)phenyl)-4,5,6,7-tetrahydrothieno[2,3-c]pyridine-3-carboxamide]",< 25 nM,< 25 nM,< 25 nM
"O=C(Nc1cc(CN2CCC23COC3)cc(C(F)(F)F)c1)c1csc2c1CCN(C(=O)c1cnc3ccccn13)C2 [Example 49, N-(3-((6-oxa-1-azaspiro[3.3]heptan-1-yl)methyl)-5-(trifluoromethyl)phenyl)-6-(imidazo[1,2-a]pyridine-3-carbonyl)-4,5,6,7-tetrahydrothieno[2,3-c]pyridine-3-carboxamide]",< 25 nM,< 25 nM,< 25 nM
"O=C(Nc1cccc(C(F)(F)F)c1)c1csc2c1CCN(C(=O)c1cnc3ccc(OCCN4CCOCC4)cn13)C2 [Example 170, 6-(6-(2-morpholinoethoxy)imidazo[1,2-a]pyridine-3-carbonyl)-N-(3-(trifluoromethyl)phenyl)-4,5,6,7-tetrahydro thieno[2,3-c]pyridine-3-carboxamide]",< 25 nM,< 25 nM,25 to 50 nM
"Cc1n[nH]c2ncc(CN3CCc4c(C(=O)Nc5cc(CN6CC[C@@H](N(C)C)C6)cc(C(F)(F)F)c5)csc4C3)cc12 [Example 157, (R)—N-(3-((3-(dimethylamino)pyrrolidin-1-yl)methyl)-5-(trifluoromethyl)phenyl)-6-((3-methyl-1H-pyrazolo[3,4-b]pyridin-5-yl)methyl)-4,5,6,7-tetrahydrothieno[2,3-c]pyridine-3-carboxamide]",< 25 nM,25 to 50 nM,25 to 50 nM
"O=C(Nc1cc(C(F)(F)F)ncn1)c1csc2c1CCN(C(=O)c1cnc3ccccn13)C2 [Example 21, 6-(imidazo[1,2-a]pyridine-3-carbonyl)-N-(6-(trifluoromethyl)pyrimidin-4-yl)-4,5,6,7-tetrahydrothieno[2,3-c]pyridine-3-carboxamide]",< 25 nM,< 25 nM,25 to 50 nM
